Experimental findings from patent US20130244999A1, “Substituted Heterocyclic Compounds” (Incyte Corporation, priority 2008, published 2013) are described below.

A word on the inhibition: it is the percentage by which the read-out fell short of the control. A high value points to strong suppression. What is called IC50 is the midpoint of a concentration-inhibition curve. A lower IC50 goes with greater potency.

T1 sequence (Q9H3N8 whole entry): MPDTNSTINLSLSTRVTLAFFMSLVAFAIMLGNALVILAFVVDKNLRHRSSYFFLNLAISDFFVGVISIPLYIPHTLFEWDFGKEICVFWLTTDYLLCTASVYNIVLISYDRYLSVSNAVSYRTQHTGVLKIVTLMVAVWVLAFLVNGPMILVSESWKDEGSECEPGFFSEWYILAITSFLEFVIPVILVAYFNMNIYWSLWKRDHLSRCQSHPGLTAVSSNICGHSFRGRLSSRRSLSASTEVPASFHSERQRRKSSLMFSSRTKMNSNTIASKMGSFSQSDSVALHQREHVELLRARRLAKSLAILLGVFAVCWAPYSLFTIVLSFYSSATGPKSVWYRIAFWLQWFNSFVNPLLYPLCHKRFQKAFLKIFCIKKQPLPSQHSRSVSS

The first assay concerns the target T1, histamine H4 receptor (Homo sapiens, UniProt Q9H3N8).
T1 construct: expressed in transfected cells; host or cells: HEK293SFM cells (membrane preparation)
Put plainly: Inhibition of histamine H4 receptor (Table A1; H4 membrane binding assay).
Conditions: not given
On the procedure: Recombinant HEK293SFM cells expressing human H1, H2, H3, H4 or mouse H4 were harvested (Packard Filtermate Harvester) in ice-cold Tris-HCl, (50 mM, pH 7.5, Sigma) with protease inhibitors (Roche) and homogenized with a Polytron homogenizer. The homogenate was centrifuged for 5 minutes at 1000 g to remove nuclei and unbroken cells. The supernatant was centrifuged at 50000 g for 30 minutes, and the resulting pellet was re-suspended in ice-cold Tris-HCl (50 mM, pH 7.5). […] Nonspecific binding was determined by inclusion of 1000× unlabeled ligands. The bound radioactivity was separated by filtration through polyethyleneimine-treated GF/B filters (Perkin Elmer). The filters were washed eight times with ice-cold Tris-HCl (50 mM, pH 7.5), and radioactivity retained on the filters was measured by liquid scintillation counting. The binding data were evaluated with Prism. […]
The compound `CC1Cc2ccc(-c3ccc(C(=O)N(C)C)nc3)cc2CN1c1cc(N2CCN(C)CC2)nc(N)n1` (single isomer, unassigned) [Example 50 B, 5-(2-(2-amino-6-(4-methylpiperazin-1-yl)pyrimidin-4-yl)-3-methyl-1,2,3,4-tetrahydroisoquinolin-7-yl)-N,N-dimetitylpicolinamide] came in with an inhibition at 1 µM of 78%.

Still in this assay, the particulars now being: histamine H4 receptor; "> a" = exceeds experiment limit.
`CNC(=O)c1ccc(-c2ccc3c(c2)CN(c2cc(N4CCN(C)CC4)nc(N)n2)C(C)C3)cn1` (single isomer, unassigned) [Example 49A]: the IC50 worked out at 45 nM.

Regarding `CNC(=O)c1ccc(-c2ccc3c(c2)CN(c2cc(N4CCN(C)CC4)nc(N)n2)C(C)C3)cn1` (single isomer, unassigned) [Example 49B, 5-{2-[2-amino-6-(4-methylpiperazin-1-yl)pyrimidin-4-yl]-3-methyl-1,2,3,4-tetrahydroisoquinolin-7-yl}-N-methylpyridine-2-carboxamide], the IC50 was determined as 38 nM. For `CC1Cc2ccc(-c3ccc(C(=O)N(C)C)nc3)cc2CN1c1cc(N2CCN(C)CC2)nc(N)n1` (single isomer, unassigned) [Example 50A, 5-(2-(2-amino-6-(4-methylpiperazin-1-yl)pyrimidin-4-yl)-3-methyl-1,2,3,4-tetrahydroisoquinolin-7-yl)-N,N-dimethylpicolinamide], the IC50 came to 88.7 nM. `CC1Cc2ccc(-c3ccc(C(=O)N[C@H](C)CO)nc3)cc2CN1c1cc(N2CCN(C)CC2)nc(N)n1` (single isomer, unassigned) [Example 51A] registered an IC50 of 75 nM. The compound `CC1Cc2ccc(-c3ccc(C(=O)N[C@H](C)CO)nc3)cc2CN1c1cc(N2CCN(C)CC2)nc(N)n1` (single isomer, unassigned) [Example 51B] displayed an IC50 of 63 nM. The same measure, in the same setting: next, `CC1Cc2ccc(-c3ccc(C(=O)N(C)CCN(C)C)nc3)cc2CN1c1cc(N2CCN(C)CC2)nc(N)n1` (single isomer, unassigned) [Example 52A, 5-{2-[2-amino-6-(4-methylpiperazin-1-yl)pyrimidin-4-yl]-3-methyl-1,2,3,4-tetrahydroisoquinolin-7-yl}-N-[2-(dimethylamino)ethyl]-N-methylpyridine-2-carboxoynide]: 46 nM; `CC1Cc2ccc(-c3ccc(C(=O)N4CCC4)nc3)cc2CN1c1cc(N2CCN(C)CC2)nc(N)n1` (single isomer, unassigned) [Example 53A, 4-[7-[6-(azetidin-1-ylcarbonyl)pyridin-3-yl]-3-methyl-3,4-dihydroLsoquinolin-2(1H)-yl]-6-(4-methylpiperazin-1-yl)pyrimidin-2-amine]: 201 nM; `CC1Cc2ccc(-c3ccc(C(=O)N4CCC4)nc3)cc2CN1c1cc(N2CCN(C)CC2)nc(N)n1` (single isomer, unassigned) [Example 53B, 4-[7-[6-(azetidin-1-ylcarbonyl)pyridin-3-yl]-3-methyl-3,4-dihydroisoquinolin-2(1H)-yl]-6-(4-methylpiperazin-1-yl)pyrimidin-2-amine]: 176 nM. With `CC1Cc2ccc(-c3ccc(C(=O)N4CC(C#N)C4)nc3)cc2CN1c1cc(N2CCN(C)CC2)nc(N)n1` (single isomer, unassigned) [Example 54A, 1-[(5-{2-[2-amino-6-(4-methylpiperazin-1-yl)pyrimidin-4-yl]-3-methyl-1,2,3,4-tetrahydroisoquinolin-7-yl}pyridin-2-yl)carbonyl]azetidine-3-carbonitrile], the IC50 is 99 nM. `CC1Cc2ccc(-c3ccc(C(=O)N4CC(C#N)C4)nc3)cc2CN1c1cc(N2CCN(C)CC2)nc(N)n1` (single isomer, unassigned) [Example 54B, 1-[(5-{2-[2-amino-6-(4-methylpiperazin-1-yl)pyrimidin-4-yl]-3-methyl-1,2,3,4-tetrahydroisoquinolin-7-yl}pyridin-2-yl)carbonyl]azetidine-3-carbonitrile] gave an IC50 of 48 nM.

Compound `CC1Cc2ccc(-c3ccc(C(=O)N4CCCC4)nc3)cc2CN1c1cc(N2CCN(C)CC2)nc(N)n1` (single isomer, unassigned) [Example 55A] registered an IC50 of 95 nM.
